Experimental data as given in ChEMBL document CHEMBL4190187, “Discovery of pyrazolopyrimidine derivatives as novel inhibitors of ataxia telangiectasia and rad3 related protein (ATR)” (Bioorg Med Chem Lett, 2017).

How the values were obtained:
[1] = target: Serine/threonine-protein kinase PAK 4 (Homo sapiens) (UniProt O96013); test: Inhibition of recombinant human PAK4 (295 to end residues) at 1 uM using myelin basic protein as substrate after 40 mins in presence of [gamma-33P]ATP by scintillation counting method
[2] = target: Protein-tyrosine kinase 6 (Homo sapiens) (UniProt Q13882); test: Inhibition of recombinant full-length human BRK at 1 uM using poly(Glu,Tyr) 4:1 as substrate after 40 mins in presence of [gamma-33P]ATP by scintillation counting method
[3] = target: Protein kinase C gamma type (Homo sapiens) (UniProt P05129); test: Inhibition of recombinant full-length human PKCgamma at 1 uM using histone H1 as substrate after 40 mins in presence of [gamma-33P]ATP by scintillation counting method
[4] = target: Insulin receptor (Homo sapiens) (UniProt P06213); test: Inhibition of recombinant human activated IR (1005 to 1310 residues) at 1 uM using KKKSPGEYVNIEFG as substrate after 40 mins in presence of [gamma-33P]ATP by scintillation counting method
[5] = target: Serine/threonine-protein kinase Chk2 (Homo sapiens) (UniProt O96017); test: Inhibition of recombinant human CHK2 (5 to end residues) at 1 uM using KKKVSRSGLYRSPSMPENLNRPR as substrate after 40 mins in presence of [gamma-33P]ATP by scintillation counting method
[6] = target: Tyrosine-protein kinase BTK (Homo sapiens, UniProt Q06187); test: Inhibition of recombinant full-length human BTK at 1 uM using KVEKIGEGTYGVVYK as substrate after 40 mins in presence of [gamma-33P]ATP by scintillation counting method
[7] = target: Phosphatidylinositol 3-kinase (Mus musculus) (UniProt P26450+P42337); test: Inhibition of recombinant full-length mouse PI3K p110a/p85a at 1 uM using phosphatidylinositol 4,5-bisphosphate as substrate after 40 mins in presence of [gamma-33P]ATP by scintillation counting method; format: protein assay
[8] = system: Ribosomal protein S6 kinase beta-1 (Homo sapiens), P23443 [T412E]; test: Inhibition of recombinant human p70S6K T412E mutant (1 to 421 residues) at 1 uM using KKRNRTLTV as substrate after 40 mins in presence of [gamma-33P]ATP by scintillation counting method
[9] = target: Dual specificity protein kinase TTK (Homo sapiens) (UniProt P33981); test: Inhibition of recombinant full-length human TTK at 1 uM using myelin basic protein as substrate after 40 mins in presence of [gamma-33P]ATP by scintillation counting method
[10] = target: MAP kinase-activated protein kinase 3 (Homo sapiens) (UniProt Q16644); test: Inhibition of recombinant human MAPKAPK3 (2 to end residues) at 1 uM using KKLNRTLSVA as substrate after 40 mins in presence of [gamma-33P]ATP by scintillation counting method
[11] = target: Mitogen-activated protein kinase 12 (Homo sapiens) (UniProt P53778); test: Inhibition of recombinant full-length human SAPK3 at 1 uM using myelin basic protein as substrate after 40 mins in presence of [gamma-33P]ATP by scintillation counting method
[12] = target: PI3K p110 beta/p85 alpha (Mus musculus) (UniProt P26450+Q8BTI9); test: Inhibition of recombinant full-length mouse p110b/p85a at 1 uM using phosphatidylinositol 4,5-bisphosphate as substrate after 40 mins in presence of [gamma-33P]ATP by scintillation counting method; format: protein-complex assay
[13] = target: Tyrosine-protein kinase Fgr (Homo sapiens) (UniProt P09769); test: Inhibition of recombinant human FGR (2 to end residues) at 1 uM using poly(Glu,Tyr) 4:1 as substrate after 40 mins in presence of [gamma-33P]ATP by scintillation counting method
[14] = target: Protein kinase C beta type (Homo sapiens) (UniProt P05771); test: Inhibition of recombinant human PKCbeta2 (2 to end residues) at 1 uM using histone H1 as substrate after 40 mins in presence of [gamma-33P]ATP by scintillation counting method
[15] = system: Serine/threonine-protein kinase B-raf (Homo sapiens), P15056 [V600E]; test: Inhibition of recombinant human B-raf V599E mutant (416 to end residues) at 1 uM using myelin basic protein as substrate after 40 mins in presence of [gamma-33P]ATP by scintillation counting method
[16] = target: Macrophage-stimulating protein receptor (Homo sapiens) (UniProt Q04912); test: Inhibition of recombinant human Ron (983 to end residues) at 1 uM using GGMEDIYFEFMGGKKK as substrate after 40 mins in presence of [gamma-33P]ATP by scintillation counting method
[17] = target: Ephrin type-A receptor 2 (Homo sapiens) (UniProt P29317); test: Inhibition of recombinant human EPHA2 (596 to 900 residues) at 1 uM using poly(Glu,Tyr) 4:1 as substrate after 40 mins in presence of [gamma-33P]ATP by scintillation counting method
[18] = target: Serine/threonine-protein kinase TAO2 (Homo sapiens) (UniProt Q9UL54); test: Inhibition of recombinant human TAO2 (1 to 320 residues) at 1 uM using myelin basic protein as substrate after 40 mins in presence of [gamma-33P]ATP by scintillation counting method
[19] = target: Tyrosine-protein kinase SYK (Homo sapiens) (UniProt P43405); test: Inhibition of recombinant full-length human Syk at 1 uM using poly(Glu,Tyr) 4:1 as substrate after 40 mins in presence of [gamma-33P]ATP by scintillation counting method
[20] = target: Mitogen-activated protein kinase 11 (Homo sapiens) (UniProt Q15759); test: Inhibition of recombinant full-length human SAPK2b at 1 uM using myelin basic protein as substrate after 40 mins in presence of [gamma-33P]ATP by scintillation counting method
[21] = target: Receptor tyrosine-protein kinase erbB-4 (Homo sapiens) (UniProt Q15303); test: Inhibition of recombinant human ErbB4 (706 to 991 residues) at 1 uM using poly(Glu,Tyr) 4:1 as substrate after 40 mins in presence of [gamma-33P]ATP by scintillation counting method
Homo sapiens = species on record: Homo sapiens; test: Inhibition of recombinant full-length human p110a/recombinant p65a (1 to 571 residues) at 1 uM using phosphatidylinositol 4,5-bisphosphate as substrate after 40 mins in presence of [gamma-33P]ATP by scintillation counting method
[22] = target: Serine/threonine-protein kinase PLK1 (Homo sapiens) (UniProt P53350); test: Inhibition of recombinant full-length human Plk1 at 1 uM using casein as substrate after 40 mins in presence of [gamma-33P]ATP by scintillation counting method
[23] = target: Serine/threonine-protein kinase/endoribonuclease IRE1 (Homo sapiens) (UniProt O75460); test: Inhibition of recombinant human IRE1 (465 to end residues) at 1 uM using myelin basic protein as substrate after 40 mins in presence of [gamma-33P]ATP by scintillation counting method
Serine/threonine-protein kinase/endoribonuclease IRE1 (Homo sapiens), sequence (O75460 19-977 limits assumed): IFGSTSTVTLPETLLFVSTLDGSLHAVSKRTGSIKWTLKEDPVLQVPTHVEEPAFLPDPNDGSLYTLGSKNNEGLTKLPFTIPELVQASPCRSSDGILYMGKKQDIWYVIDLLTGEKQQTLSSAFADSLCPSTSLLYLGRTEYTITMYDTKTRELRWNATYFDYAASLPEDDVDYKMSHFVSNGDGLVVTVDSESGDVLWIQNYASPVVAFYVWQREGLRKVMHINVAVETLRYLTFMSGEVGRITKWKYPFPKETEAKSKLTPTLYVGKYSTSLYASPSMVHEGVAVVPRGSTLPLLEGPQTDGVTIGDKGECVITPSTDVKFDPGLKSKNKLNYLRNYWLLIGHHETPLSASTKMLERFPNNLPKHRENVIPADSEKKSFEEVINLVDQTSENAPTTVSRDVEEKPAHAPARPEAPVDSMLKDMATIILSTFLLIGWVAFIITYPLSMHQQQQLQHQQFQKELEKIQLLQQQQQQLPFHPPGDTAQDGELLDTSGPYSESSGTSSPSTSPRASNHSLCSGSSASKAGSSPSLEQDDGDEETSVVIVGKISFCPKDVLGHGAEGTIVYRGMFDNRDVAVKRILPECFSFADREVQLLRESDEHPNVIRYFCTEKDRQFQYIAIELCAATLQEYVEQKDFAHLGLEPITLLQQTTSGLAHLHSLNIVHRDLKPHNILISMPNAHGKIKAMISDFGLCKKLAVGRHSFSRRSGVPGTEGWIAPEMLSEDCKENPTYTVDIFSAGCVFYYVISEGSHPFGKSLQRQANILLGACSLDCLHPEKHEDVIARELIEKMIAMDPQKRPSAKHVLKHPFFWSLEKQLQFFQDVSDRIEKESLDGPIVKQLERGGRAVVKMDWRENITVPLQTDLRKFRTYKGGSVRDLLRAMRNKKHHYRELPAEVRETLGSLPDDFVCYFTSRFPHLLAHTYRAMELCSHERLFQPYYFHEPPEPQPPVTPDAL

Serine/threonine-protein kinase Chk2 (Homo sapiens), sequence (O96017 whole entry): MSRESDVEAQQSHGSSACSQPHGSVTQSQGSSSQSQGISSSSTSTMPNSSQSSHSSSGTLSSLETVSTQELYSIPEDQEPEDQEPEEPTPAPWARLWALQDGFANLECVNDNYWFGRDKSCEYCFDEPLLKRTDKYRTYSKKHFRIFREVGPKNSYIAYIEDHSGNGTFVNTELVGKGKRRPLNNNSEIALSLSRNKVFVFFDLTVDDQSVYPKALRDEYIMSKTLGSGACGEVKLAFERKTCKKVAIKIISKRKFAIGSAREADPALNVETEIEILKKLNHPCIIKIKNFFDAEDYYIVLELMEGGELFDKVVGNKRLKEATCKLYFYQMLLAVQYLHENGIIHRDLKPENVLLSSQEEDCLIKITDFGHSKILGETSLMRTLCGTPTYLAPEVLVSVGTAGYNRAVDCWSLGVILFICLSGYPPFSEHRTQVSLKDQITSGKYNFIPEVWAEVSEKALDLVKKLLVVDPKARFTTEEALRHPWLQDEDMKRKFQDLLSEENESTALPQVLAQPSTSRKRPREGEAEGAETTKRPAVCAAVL
Ephrin type-A receptor 2 (Homo sapiens), sequence (P29317 whole entry, the tested form may be a part): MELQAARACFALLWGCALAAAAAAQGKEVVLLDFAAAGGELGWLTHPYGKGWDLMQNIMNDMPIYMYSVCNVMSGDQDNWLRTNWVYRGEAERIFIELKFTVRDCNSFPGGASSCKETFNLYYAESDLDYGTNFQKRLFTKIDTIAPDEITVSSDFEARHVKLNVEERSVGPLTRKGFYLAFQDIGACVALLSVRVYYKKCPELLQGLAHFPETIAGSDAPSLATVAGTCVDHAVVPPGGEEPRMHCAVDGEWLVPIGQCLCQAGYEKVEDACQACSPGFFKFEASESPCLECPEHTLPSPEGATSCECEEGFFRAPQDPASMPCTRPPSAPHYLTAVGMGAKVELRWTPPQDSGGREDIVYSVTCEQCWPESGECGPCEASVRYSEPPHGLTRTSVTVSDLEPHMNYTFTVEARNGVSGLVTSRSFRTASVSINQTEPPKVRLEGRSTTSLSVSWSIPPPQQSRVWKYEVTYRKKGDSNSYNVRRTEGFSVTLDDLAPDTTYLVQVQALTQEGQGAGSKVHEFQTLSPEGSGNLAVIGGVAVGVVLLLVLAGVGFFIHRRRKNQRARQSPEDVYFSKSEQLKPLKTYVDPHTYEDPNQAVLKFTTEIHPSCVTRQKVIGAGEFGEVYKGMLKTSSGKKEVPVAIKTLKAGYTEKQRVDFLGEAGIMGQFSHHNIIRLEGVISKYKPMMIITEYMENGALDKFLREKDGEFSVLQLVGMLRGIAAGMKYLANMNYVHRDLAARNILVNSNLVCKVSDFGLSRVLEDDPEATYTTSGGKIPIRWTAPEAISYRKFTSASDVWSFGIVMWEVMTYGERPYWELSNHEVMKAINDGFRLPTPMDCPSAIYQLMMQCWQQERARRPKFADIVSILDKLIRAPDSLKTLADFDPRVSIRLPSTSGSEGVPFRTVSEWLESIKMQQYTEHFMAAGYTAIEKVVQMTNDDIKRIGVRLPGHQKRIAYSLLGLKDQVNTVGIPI
Macrophage-stimulating protein receptor (Homo sapiens), sequence (Q04912 25-304 limits assumed): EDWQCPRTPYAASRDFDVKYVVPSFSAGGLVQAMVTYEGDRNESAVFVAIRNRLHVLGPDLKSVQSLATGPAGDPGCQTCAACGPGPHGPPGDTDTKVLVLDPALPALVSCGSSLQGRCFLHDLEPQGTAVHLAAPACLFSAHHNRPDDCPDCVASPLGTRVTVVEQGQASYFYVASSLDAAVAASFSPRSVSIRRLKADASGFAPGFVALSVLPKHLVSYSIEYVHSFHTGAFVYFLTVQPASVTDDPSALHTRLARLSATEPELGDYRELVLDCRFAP
Macrophage-stimulating protein receptor (Homo sapiens), sequence (Q04912 310-1400 limits assumed): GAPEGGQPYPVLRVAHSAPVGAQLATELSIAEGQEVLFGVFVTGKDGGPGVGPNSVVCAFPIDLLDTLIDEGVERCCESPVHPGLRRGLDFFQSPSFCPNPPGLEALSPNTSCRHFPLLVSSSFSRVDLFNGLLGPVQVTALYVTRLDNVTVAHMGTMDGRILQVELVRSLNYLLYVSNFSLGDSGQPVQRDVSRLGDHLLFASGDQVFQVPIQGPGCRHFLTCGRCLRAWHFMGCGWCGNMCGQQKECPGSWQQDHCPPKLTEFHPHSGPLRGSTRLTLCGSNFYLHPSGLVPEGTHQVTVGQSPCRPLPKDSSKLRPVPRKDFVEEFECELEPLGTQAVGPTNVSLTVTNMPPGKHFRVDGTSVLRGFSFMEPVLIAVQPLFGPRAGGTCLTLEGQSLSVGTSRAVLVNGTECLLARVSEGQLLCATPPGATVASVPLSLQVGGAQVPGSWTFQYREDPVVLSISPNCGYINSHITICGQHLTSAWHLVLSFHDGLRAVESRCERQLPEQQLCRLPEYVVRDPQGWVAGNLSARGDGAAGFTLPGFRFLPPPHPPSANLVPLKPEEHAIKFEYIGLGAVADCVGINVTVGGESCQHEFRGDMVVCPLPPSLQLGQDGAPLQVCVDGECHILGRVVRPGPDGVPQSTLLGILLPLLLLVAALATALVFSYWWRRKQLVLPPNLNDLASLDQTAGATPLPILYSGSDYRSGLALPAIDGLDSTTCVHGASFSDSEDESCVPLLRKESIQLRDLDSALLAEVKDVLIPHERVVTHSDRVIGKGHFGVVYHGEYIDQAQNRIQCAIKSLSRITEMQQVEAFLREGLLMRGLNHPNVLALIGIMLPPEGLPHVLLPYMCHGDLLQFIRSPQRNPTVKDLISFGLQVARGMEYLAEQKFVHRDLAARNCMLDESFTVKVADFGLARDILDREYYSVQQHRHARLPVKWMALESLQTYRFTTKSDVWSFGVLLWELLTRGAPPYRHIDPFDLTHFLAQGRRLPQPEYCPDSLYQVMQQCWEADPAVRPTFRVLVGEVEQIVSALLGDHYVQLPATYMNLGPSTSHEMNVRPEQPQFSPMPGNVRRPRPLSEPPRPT
Mitogen-activated protein kinase 11 (Homo sapiens), sequence (Q15759 whole entry, the tested form may be a part): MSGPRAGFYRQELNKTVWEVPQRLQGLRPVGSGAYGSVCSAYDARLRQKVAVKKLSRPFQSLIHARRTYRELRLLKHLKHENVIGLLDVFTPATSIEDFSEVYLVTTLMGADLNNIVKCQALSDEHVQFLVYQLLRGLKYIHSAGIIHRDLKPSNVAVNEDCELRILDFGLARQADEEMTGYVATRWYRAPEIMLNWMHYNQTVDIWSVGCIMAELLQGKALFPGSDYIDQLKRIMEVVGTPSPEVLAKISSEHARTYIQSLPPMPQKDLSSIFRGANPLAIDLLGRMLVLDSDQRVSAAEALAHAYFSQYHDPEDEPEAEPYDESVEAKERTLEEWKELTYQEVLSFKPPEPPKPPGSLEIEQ
Ribosomal protein S6 kinase beta-1 (Homo sapiens), P23443 [T412E], sequence (P23443 whole entry T412E, looked up, the tested form may be a part): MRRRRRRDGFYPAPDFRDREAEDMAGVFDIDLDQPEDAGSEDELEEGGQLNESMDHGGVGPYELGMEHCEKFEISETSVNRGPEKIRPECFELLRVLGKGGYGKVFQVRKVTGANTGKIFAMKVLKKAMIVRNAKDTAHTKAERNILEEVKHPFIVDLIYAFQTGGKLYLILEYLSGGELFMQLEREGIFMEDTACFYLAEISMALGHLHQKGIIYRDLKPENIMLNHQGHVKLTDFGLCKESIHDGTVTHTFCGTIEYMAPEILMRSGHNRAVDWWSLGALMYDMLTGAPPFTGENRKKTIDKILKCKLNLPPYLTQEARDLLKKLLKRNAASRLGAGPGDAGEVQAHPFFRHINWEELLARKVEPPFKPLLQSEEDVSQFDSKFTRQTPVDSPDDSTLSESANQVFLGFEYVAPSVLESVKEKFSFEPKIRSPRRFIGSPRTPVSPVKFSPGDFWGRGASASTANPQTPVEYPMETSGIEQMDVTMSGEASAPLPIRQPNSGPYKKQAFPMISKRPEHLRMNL

`CS(=O)(=O)c1ccc(-n2nc(-c3cnc4[nH]ccc4c3)c3c(N)ncnc32)cc1` showed an inhibition [1] of 45%, an inhibition [2] of 102% and an inhibition [3] of 3%. The inhibition [4] was 14%, the inhibition [5] was -3% and the inhibition [6] was 25%. For the same molecule, the inhibition [7] was 10%, the inhibition [8] was -2% and the inhibition [9] was -6%. It also gave an inhibition [10] of -1%, an inhibition [11] of 2% and an inhibition [12] of 0%. For the same molecule, the inhibition [13] was 69%, the inhibition [14] was -4% and the inhibition [15] was 93%. The inhibition [16] was 2%, the inhibition [17] was 9% and the inhibition [18] was 9%. For the same molecule, the inhibition [19] was 7%, the inhibition [20] was -1% and the inhibition [21] was 4%. It also gave an inhibition (Homo sapiens) of 8%, an inhibition [22] of -1% and an inhibition [23] of 2%.
